Assay results: PMC10518257 (Nature Cancer, 2023)
Values joined by “and” are separate entries in the source; they are usually repeats but may differ in a detail not shown here. Identical values can stand only once. Like-named read-outs stand apart in the source and are kept apart here.

Experiments:
[1] = system: LUAD-0002AS1 cells; experiment: Growth inhibition (alamarBlue, 96 h); assay type: cell-based, human; settings: LUAD-0002AS1, replicate sets
[2] = system: Ba/F3 cells; experiment: Growth inhibition assay in Ba/F3 cells (CellTiter-Glo, 72 h); assay type: cell-based; settings: Mus musculus
[3] = system: Ba/F3 cells expressing KIF5B–RET^V804L; experiment: as above; assay type: cell-based; settings: replicate sets
[4] = system: LUAD-0077AS1 PDX; experiment: PDX efficacy study; assay type: in vivo, NSG mice; set-up: Tumor volume: unit not given here; settings: for Area Under Curve Mean: Fig. 6b LUAD-0077AS1 tumor growth; for Change in tumor volume (block without heading, Fig. 6b) / Tumor volume: LUAD-0077AS1, individual animals
[5] = system: LUAD-0087AS2 cells; experiment: Growth inhibition (alamarBlue, 96 h); assay type: cell-based, human; settings: for raw viability signal (Source Data Fig. 3b-c): LUAD-0087AS2, replicate sets
[6] = system: Ba/F3 cells expressing KIF5B–RET^G810R; experiment: Growth inhibition assay in Ba/F3 cells (CellTiter-Glo, 72 h); assay type: cell-based; settings: Ba/3-KIF5B-RET-G810R; replicate Sets 1-3
[7] = system: LC-2/ad cells; experiment: Growth inhibition (alamarBlue, 96 h); assay type: cell-based, human; settings: for raw viability signal (Source Data Fig. 3b-c): LC-2/Ad, replicate sets
[8] = system: LUAD-0057BS1 cells; experiment: Growth inhibition (alamarBlue, 96 h); assay type: cell-based, human; settings: for raw viability signal (Source Data Fig. 3b-c): LUAD-0057BS1, replicate sets
[9] = system: phosphorylation of RET^G810R, RET^G810S and RET^G810C in Ba/F3 cells; experiment: Western blotting of RET phosphorylation in Ba/F3 KIF5B–RET cells; assay type: cell-based; settings: 1 h, western blot, 100 nM
[10] = system: Ba/F3-RET^M918T; experiment: Growth inhibition assay in Ba/F3 cells (CellTiter-Glo, 72 h); assay type: cell-based; settings: Mus musculus, BaF3, 72 h, read-out: GI50 value (Mean ± SD), Ba/F3-RET^M918T, CellTiter-Glo, 72 h
[11] = Homo sapiens, 96 h, read-out: IC50 for Inhibition of Growth (95% CI)

COCc1ccc(NC(=O)c2c(C#CCN3CCOCC3)n(C3(C)CC3)c3ncnc(N)c23)cc1 [Vepafestinib, 4-amino-N-[4-(methoxymethyl)phenyl]-7-(1-methylcyclopropyl)-6-[3-(morpholin-4-yl)prop-1-yn-1-yl]-7H-pyrrolo[2,3-d]pyrimidine-5-carboxamide]
raw viability signal (Source Data Fig. 3b-c) ([1]; 0.1 nM): 15237.2 and 13944 and 12774.4 | raw viability signal (Source Data Fig. 3b-c) ([1]; 1 nM): 14596.9 and 11925.3 and 12443 | raw viability signal (Source Data Fig. 3b-c) ([1]; 10 nM): 5820.38 and 4419.86 and 6264.61 | raw viability signal (Source Data Fig. 3b-c) ([1]; 100 nM): 2459.35 and 2506.15 and 3193.42 | raw viability signal (Source Data Fig. 3b-c) ([1]; 1000 nM): 1853.86 and 1731.17 and 3413.68 | raw viability signal (Source Data Fig. 3b-c) ([1]; 10000 nM): 1864.65 and 2510.44 and 3189.66 | GI50 ([2]; BaF3, 72 h, read-out: GI50 value (Mean ± SD), Ba/F3, CellTiter-Glo, 72 h): > 10000 nM | GI50 ([2]; BaF3, Ba/F3 (parental), replicate Sets 1-3): > 10000 nM | GI50 ([3]; Ba/3-KIF5B-RET-V804L): 21.4 nM | GI50 ([3]; Mus musculus, BaF3, Ba/3-KIF5B-RET-V804L): 25.9 nM | Area Under Curve Mean ([4]; 50 mg/kg BID): 728.7 | Area Under Curve Mean ([4]; 100 mg/kg QD): 549 | Change in tumor volume (block without heading, Fig. 6b) ([4]; 50 mg/kg BID): 60.867 and 57.9883 and 49.0287 and 27.5983 and 23.1229 | Tumor volume ([4]; 50 mg/kg BID, treatment day 0): 82.36 (2×) and 88.7 and 83.97 and 85.5 | Tumor volume ([4]; 50 mg/kg BID, treatment day 4): 85.5 (3×) and 82.36 and 83.97 | Tumor volume ([4]; 50 mg/kg BID, treatment day 7): 80.89 (2×) and 82.36 (2×) and 85.5 | Tumor volume ([4]; 50 mg/kg BID, treatment day 11): 80.89 (3×) and 74.9 and 77.87 | Tumor volume ([4]; 50 mg/kg BID, treatment day 14): 95.03 and 87.03 and 102.07 (3×) | Tumor volume ([4]; 50 mg/kg BID, treatment day 19): 105.09 and 109.21 and 122.74 and 135.08 (2×) | Tumor volume ([4]; 50 mg/kg BID, treatment day 22): 186.96 and 181.98 and 192.42 and 159.66 and 197.96 | Tumor volume ([4]; 50 mg/kg BID, treatment day 25): 232.25 (2×) and 250.35 (2×) and 247.99 | Change in tumor volume (block without heading, Fig. 6b) ([4]; 100 mg/kg QD): 67.7861 and 60.2113 and 54.3275 and 44.2105 and 25.5424 | Tumor volume ([4]; 100 mg/kg QD, treatment day 0): 82.36 and 83.97 and 87.11 and 85.5 (2×) | Tumor volume ([4]; 100 mg/kg QD, treatment day 4): 85.5 (2×) and 83.97 (2×) and 88.7 | Tumor volume ([4]; 100 mg/kg QD, treatment day 7): 82.36 and 72.18 and 79.42 and 77.87 and 79.29 | Tumor volume ([4]; 100 mg/kg QD, treatment day 11): 79.29 (2×) and 65.37 and 72.18 and 77.87 | Tumor volume ([4]; 100 mg/kg QD, treatment day 14): 114.83 and 111.18 and 83.83 (3×) | Tumor volume ([4]; 100 mg/kg QD, treatment day 19): 131.95 (2×) and 140.89 and 109.36 and 123.3 | Tumor volume ([4]; 100 mg/kg QD, treatment day 22): 136.38 and 156.56 and 135.08 and 138.33 and 147.55 | Tumor volume ([4]; 100 mg/kg QD, treatment day 25): 213.8 and 205.8 and 189.86 and 177.9 and 205.88 | IC50 [5, 11]: 52 nM | raw viability signal (Source Data Fig. 3b-c) ([5]; 0.01 nM): 11228 and 14615.9 and 14016.7 and 14250.8 | raw viability signal (Source Data Fig. 3b-c) ([5]; 0.1 nM): 11523.4 and 15236.1 and 13636.1 and 15169.5 | raw viability signal (Source Data Fig. 3b-c) ([5]; 1 nM): 9899.07 and 15123.8 and 13931.5 and 14165.7 | raw viability signal (Source Data Fig. 3b-c) ([5]; 10 nM): 10547.8 and 8202.29 and 13996.8 and 13713.3 | raw viability signal (Source Data Fig. 3b-c) ([5]; 100 nM): 5765.45 and 5334.21 and 3421.1 and 4734.04 | raw viability signal (Source Data Fig. 3b-c) ([5]; 1000 nM): 2843.25 and 5162.03 and 1552.19 and 1343.68 | raw viability signal (Source Data Fig. 3b-c) ([5]; 10000 nM): 1385.86 and 3882.23 and 977.192 and 943.954 | GI50 [6]: 24.2 nM and 46.7 nM | IC50 ([7]; Homo sapiens, LC-2-ad, 96 h, read-out: IC50 for Inhibition of Growth (95% CI)): 15 nM | raw viability signal (Source Data Fig. 3b-c) ([7]; 0.01 nM): 13380.1 and 23532.8 | raw viability signal (Source Data Fig. 3b-c) ([7]; 0.1 nM): 13890.3 and 20497.1 | raw viability signal (Source Data Fig. 3b-c) ([7]; 1 nM): 12571.5 and 21458.9 | raw viability signal (Source Data Fig. 3b-c) ([7]; 10 nM): 6299.39 and 16710 | raw viability signal (Source Data Fig. 3b-c) ([7]; 100 nM): 4794.24 and 3373.89 | raw viability signal (Source Data Fig. 3b-c) ([7]; 1000 nM): 5340.72 and 2243.82 | raw viability signal (Source Data Fig. 3b-c) ([7]; 10000 nM): 3810.66 and 1837.55 | IC50 [8, 11]: 60 nM | raw viability signal (Source Data Fig. 3b-c) ([8]; 0.01 nM): 17419.2 and 15925.4 and 18689.8 and 23015.1 | raw viability signal (Source Data Fig. 3b-c) ([8]; 0.1 nM): 17721.3 and 15866.4 and 19298.6 and 21993.3 | raw viability signal (Source Data Fig. 3b-c) ([8]; 1 nM): 17137.9 and 16657.5 and 19117.5 and 21130.9 | raw viability signal (Source Data Fig. 3b-c) ([8]; 10 nM): 14331 and 15273.4 and 17077.7 and 19439.8 | raw viability signal (Source Data Fig. 3b-c) ([8]; 100 nM): 7158.2 and 6135.51 and 7993.83 and 7600.63 | raw viability signal (Source Data Fig. 3b-c) ([8]; 1000 nM): 3333.45 and 1678.22 and 2095.91 and 2070.83 | raw viability signal (Source Data Fig. 3b-c) ([8]; 10000 nM): 2605.9 and 881.24 and 1045.29 and 1424.56 | suppression of phosphorylation of RET^G810R, RET^G810S and RET^G810C [9]: near-complete inhibition | GI50 [10]: 1.94 ± 0.88 nM
